Where “and” joins values, the source holds several entries; their conditions need not be identical. Equal values may be shown once.
Assay: Biodistribution of [^18F]JHU1221823 with cold FAPI-04 blocker
Type: in vivo, mouse
Conditions: for % ID/g Bladder / % ID/g Blood / % ID/g Brain / % ID/g Fat / % ID/g Femur / % ID/g Heart / % ID/g Kidney / % ID/g Large intestine / % ID/g Liver / % ID/g Lung / % ID/g Muscle / % ID/g Pancreas / % ID/g Salivary gland / % ID/g Small intestine / % ID/g Spleen / % ID/g Stomach / % ID/g Tumor: single mouse

N#C[C@@H]1CCCN1C(=O)CNC(=O)c1ccnc2ccc(OCCCNC(=O)CCOCCOCCOCCOCCNC(=O)[C@H](CCCCNC(=O)c3ccc([18F])nc3)NC(=O)CN3CCN(CC(=O)O)CCN(CC(=O)O)CCN(CC(=O)O)CC3)cc12 [[^18F]JHU1221823]
% ID/g Mean Bladder (30 min): 2.49 % ID/g
% ID/g Bladder (30 min): 1.53 % ID/g and 3.45 % ID/g
% ID/g Mean Bladder (60 min): 5.51 % ID/g
% ID/g Bladder (60 min): 3.64 % ID/g and 7.58 % ID/g
% ID/g Mean Bladder (+ Blocker Cold FAPI-04, 60 min): 2.33 % ID/g
% ID/g Bladder (+ Blocker Cold FAPI-04, 60 min): 2.62 % ID/g and 2.04 % ID/g
% ID/g Mean Blood (30 min): 10.81 % ID/g
% ID/g Blood (30 min): 11.89 % ID/g and 9.72 % ID/g
% ID/g Mean Blood (60 min): 10.03 % ID/g
% ID/g Blood (60 min): 9.50 % ID/g and 10.76 % ID/g
% ID/g Mean Blood (+ Blocker Cold FAPI-04, 60 min): 0.25 % ID/g
% ID/g Blood (+ Blocker Cold FAPI-04, 60 min): 0.22 % ID/g and 0.28 % ID/g
% ID/g Mean Brain (30 min): 0.29 % ID/g
% ID/g Brain (30 min): 0.26 % ID/g and 0.31 % ID/g
% ID/g Mean Brain (60 min): 0.45 % ID/g
% ID/g Brain (60 min): 0.40 % ID/g and 0.50 % ID/g
% ID/g Mean Brain (+ Blocker Cold FAPI-04, 60 min): 0.09 % ID/g
% ID/g Brain (+ Blocker Cold FAPI-04, 60 min): 0.06 % ID/g and 0.11 % ID/g
% ID/g Mean Fat (30 min): 0.42 % ID/g
% ID/g Fat (30 min): 0.41 % ID/g and 0.43 % ID/g
% ID/g Mean Fat (60 min): 0.56 % ID/g
% ID/g Fat (60 min): 0.53 % ID/g and 0.58 % ID/g
% ID/g Mean Fat (+ Blocker Cold FAPI-04, 60 min): 0.21 % ID/g
% ID/g Fat (+ Blocker Cold FAPI-04, 60 min): 0.15 % ID/g and 0.27 % ID/g
% ID/g Mean Femur (30 min): 3.50 % ID/g
% ID/g Femur (30 min): 3.95 % ID/g and 3.45 % ID/g
% ID/g Mean Femur (60 min): 3.54 % ID/g
% ID/g Femur (60 min): 3.21 % ID/g and 3.87 % ID/g
% ID/g Mean Femur (+ Blocker Cold FAPI-04, 60 min): 1.78 % ID/g
% ID/g Femur (+ Blocker Cold FAPI-04, 60 min): 0.98 % ID/g and 2.58 % ID/g
% ID/g Mean Heart (30 min): 5.01 % ID/g
% ID/g Heart (30 min): 5.25 % ID/g and 4.76 % ID/g
% ID/g Mean Heart (60 min): 4.52 % ID/g
% ID/g Heart (60 min): 4.67 % ID/g and 4.58 % ID/g
% ID/g Mean Heart (+ Blocker Cold FAPI-04, 60 min): 0.28 % ID/g
% ID/g Heart (+ Blocker Cold FAPI-04, 60 min): 0.22 % ID/g and 0.33 % ID/g
% ID/g Mean Kidney (30 min): 3.17 % ID/g
% ID/g Kidney (30 min): 3.37 % ID/g and 2.96 % ID/g
% ID/g Mean Kidney (60 min): 2.75 % ID/g
% ID/g Kidney (60 min): 2.76 % ID/g and 2.75 % ID/g
% ID/g Mean Kidney (+ Blocker Cold FAPI-04, 60 min): 1.77 % ID/g
% ID/g Kidney (+ Blocker Cold FAPI-04, 60 min): 1.85 % ID/g and 1.69 % ID/g
% ID/g Mean Large intestine (30 min): 2.14 % ID/g
% ID/g Large intestine (30 min): 1.61 % ID/g and 2.67 % ID/g
% ID/g Mean Large intestine (60 min): 5.58 % ID/g
% ID/g Large intestine (60 min): 1.70 % ID/g and 5.45 % ID/g
% ID/g Mean Large intestine (+ Blocker Cold FAPI-04, 60 min): 0.47 % ID/g
% ID/g Large intestine (+ Blocker Cold FAPI-04, 60 min): 0.41 % ID/g and 0.52 % ID/g
% ID/g Mean Liver (30 min): 2.44 % ID/g
% ID/g Liver (30 min): 2.58 % ID/g and 2.30 % ID/g
% ID/g Mean Liver (60 min): 2.62 % ID/g
% ID/g Liver (60 min): 2.49 % ID/g and 2.75 % ID/g
% ID/g Mean Liver (+ Blocker Cold FAPI-04, 60 min): 0.44 % ID/g
% ID/g Liver (+ Blocker Cold FAPI-04, 60 min): 0.35 % ID/g and 0.51 % ID/g
% ID/g Mean Lung (30 min): 6.38 % ID/g
% ID/g Lung (30 min): 6.92 % ID/g and 5.83 % ID/g
% ID/g Mean Lung (60 min): 6.05 % ID/g
% ID/g Lung (60 min): 5.36 % ID/g and 6.75 % ID/g
% ID/g Mean Lung (+ Blocker Cold FAPI-04, 60 min): 0.72 % ID/g
% ID/g Lung (+ Blocker Cold FAPI-04, 60 min): 0.54 % ID/g and 0.89 % ID/g
% ID/g Mean Muscle (30 min): 1.73 % ID/g
% ID/g Muscle (30 min): 1.74 % ID/g and 1.71 % ID/g
% ID/g Mean Muscle (60 min): 1.75 % ID/g
% ID/g Muscle (60 min): 1.76 % ID/g and 1.75 % ID/g
% ID/g Mean Muscle (+ Blocker Cold FAPI-04, 60 min): 0.48 % ID/g
% ID/g Muscle (+ Blocker Cold FAPI-04, 60 min): 0.25 % ID/g and 0.61 % ID/g
% ID/g Mean Pancreas (30 min): 3.13 % ID/g
% ID/g Pancreas (30 min): 3.58 % ID/g and 2.88 % ID/g
% ID/g Mean Pancreas (60 min): 3.70 % ID/g
% ID/g Pancreas (60 min): 5.44 % ID/g and 3.95 % ID/g
% ID/g Mean Pancreas (+ Blocker Cold FAPI-04, 60 min): 0.37 % ID/g
% ID/g Pancreas (+ Blocker Cold FAPI-04, 60 min): 0.27 % ID/g and 0.46 % ID/g
% ID/g Mean Salivary gland (30 min): 8.51 % ID/g
% ID/g Salivary gland (30 min): 7.35 % ID/g and 9.57 % ID/g
% ID/g Mean Salivary gland (60 min): 8.97 % ID/g
% ID/g Salivary gland (60 min): 9.14 % ID/g and 8.79 % ID/g
% ID/g Mean Salivary gland (+ Blocker Cold FAPI-04, 60 min): 0.42 % ID/g
% ID/g Salivary gland (+ Blocker Cold FAPI-04, 60 min): 0.37 % ID/g and 0.48 % ID/g
% ID/g Mean Small intestine (30 min): 2.78 % ID/g
% ID/g Small intestine (30 min): 3.08 % ID/g and 2.48 % ID/g
% ID/g Mean Small intestine (60 min): 5.18 % ID/g
% ID/g Small intestine (60 min): 8.18 % ID/g and 3.18 % ID/g
% ID/g Mean Small intestine (+ Blocker Cold FAPI-04, 60 min): 0.99 % ID/g
% ID/g Small intestine (+ Blocker Cold FAPI-04, 60 min): 0.91 % ID/g and 1.06 % ID/g
% ID/g Mean Spleen (30 min): 2.08 % ID/g
% ID/g Spleen (30 min): 2.08 % ID/g and 2.12 % ID/g
% ID/g Mean Spleen (60 min): 2.35 % ID/g
% ID/g Spleen (60 min): 2.25 % ID/g and 2.45 % ID/g
% ID/g Mean Spleen (+ Blocker Cold FAPI-04, 60 min): 0.51 % ID/g
% ID/g Spleen (+ Blocker Cold FAPI-04, 60 min): 0.29 % ID/g and 0.38 % ID/g
% ID/g Mean Stomach (30 min): 1.52 % ID/g
% ID/g Stomach (30 min): 1.84 % ID/g and 1.21 % ID/g
% ID/g Mean Stomach (60 min): 1.68 % ID/g
% ID/g Stomach (60 min): 1.68 % ID/g and 1.57 % ID/g
% ID/g Mean Stomach (+ Blocker Cold FAPI-04, 60 min): 0.34 % ID/g
% ID/g Stomach (+ Blocker Cold FAPI-04, 60 min): 0.28 % ID/g and 0.40 % ID/g
% ID/g Mean Tumor (30 min): 3.11 % ID/g
% ID/g Tumor (30 min): 2.90 % ID/g and 3.32 % ID/g
% ID/g Mean Tumor (60 min): 6.20 % ID/g
% ID/g Tumor (60 min): 5.22 % ID/g and 7.17 % ID/g
% ID/g Mean Tumor (+ Blocker Cold FAPI-04, 60 min): 1.04 % ID/g
% ID/g Tumor (+ Blocker Cold FAPI-04, 60 min): 0.89 % ID/g and 1.19 % ID/g

From US20240382629A1, “HETEROBIVALENT AND HOMOBIVALENT AGENTS TARGETING FIBROBLAST ACTIVATION PROTEIN ALPHA AND/OR PROSTATE-SPECIFIC MEMBRANE ANTIGEN” (The Johns Hopkins University, priority 2021, published 2024)
